Data published in patent US11149008B2, “Sulfamide derivatives and preparation method and use thereof” (HitGen Ltd., priority 2015, dated 2021).
pEC50, pIC50: −log10 of the molar value.

How the values were obtained:
HepG2 cells = experiment: Cell growth inhibition measurement (CCK-8), HepG2; format: cell-based; conditions: Homo sapiens, HepG2, 72 h, highest EC50 measured during one or multiple operations, read-out: Inhibition activity against cancer cells, HepG2 (EC50)
Source text: A HepG2 cell strain and an HCT-116 cell strain were purchased from Shanghai Institutes for Biological Sciences; a DMEM high-sugar culture medium and an MEM culture medium were purchased from Hyclone; fetal calf serum was purchased from Gibco; trypsin was purchased from Invitrogen Shanghai; a CCK-8 kit was purchased from Beyotime Institute of Biotechnology; and, the remaining cell culture mediums and other consumables were purchased from Corning China.
HepG2 cells and HCT-116 cells in the logarithmic growth phase were digested by trypsin. After the counting of uniform cell suspension, the cell density was adjusted as 1500 cells/well by a culture medium containing 10% serum. The cells were re-inoculated to a 96-well cell culture plate, and cultured to a volume of 200 μL at 37° C. in an incubator containing 5% CO2. The cells could be tested after being cultured for 24 h.
The cells cultured for 24 h were taken out from the incubator. The culture liquid in the well plate was sucked out, and 200 μL of compound solution prepared in the culture medium containing 10% fetal calf serum was added in each well. Five parallel mediums were provided for each concentration, and a DMSO culture medium was used as negative control. The culture mediums were cultured for 72 h at 37° C. in an incubator containing 5% CO2, and CCK-8 detection was performed.
A serum-free culture medium and CCK-8 solution were prepared, and CCK-8 working solution was prepared at a ratio of 10:1 (this process should be performed in dark place).
The cells cultured for 72 h were taken out from the incubator. The culture liquid in the well plate was sucked out, and 120 μL of the CCK-8 working solution was added in each well. A well plate without cells was also added with 120 μL of the CCK-8 working solution to serve as blank control. The well plates were cultured for 1 h at 37° C. in an incubator containing 5% CO2 (this process should be performed in dark place).
The well plates were taken out from the incubator, 100 μL of solution in each well was sucked out and added in a new 96-well plate, and the absorbance was measured at 450 nm (this process should be performed in dark place).
where Tx is the absorbance of the CCK-8 after the compound acts for 72 h;
C is the absorbance of the CCK-8 after the negative control wells are cultured for 72 h; and
B is the absorbance of the CCK-8 in the blank control wells.
The test results of the compounds prepared according to the embodiments during the measurement are shown in Table 3, wherein the measured highest EC50 of the compounds during one operation or multiple operations is classified according to the following description: […]

HDAC 1 = HDAC 1 (Homo sapiens, UniProt Q13547); experiment: Enzyme activity detection of histone deacetylase 1 (fluorogenic substrate deacetylation); format: biochemical; conditions: 0.28 ng/μL HDAC 1, 10 μM substrate; IC50 class
Source text: (§1) During the deacetylation detection of a substrate, the HDAC inhibition activity of the compound of the present invention was detected.
C: Enzyme Activity Detection of Histone Deacetylase 1
(§2) Acetyl on the substrate was removed by the HDAC 1, so that the substrate was activated, and the developing liquid added subsequently could act on the substrate to release the fluorescent group. The size of the fluorescence signal reflected the activity of the HDAC 1. The IC50 detection method for this enzyme was disclosed in Chuping Xu, Elisabetta Soragni Improved Histone Deacetylase Inhibitors as Therapeutics for the Neurdegenerative Disease Friedreich's Ataxia: A New Synthetic Route. The total reaction system (100 μL/well) contained 0.28 ng/μL of HDAC 1, 10 μM of the substrate and the compound in different concentrations. The fluorescence signal was detected online at Ex/Em=360/460. The inhibition effect of the compound was determined from the obtained data, a concentration response curve was obtained by using the inhibition effect and the concentration of the compound, and the value of IC50 was fitted according to a four-parameter model.
(§3) The activities of the compounds prepared in the embodiments against the histone deacetylases 1, 3 and 6 (i.e., HDAC 1, HDAC 3 and HDAC 6) were detected by the above methods, and the test results were shown in Table 2, where the measurements of IC50 of the compounds were classified according to the following description: […]

HDAC 3 = biological target: T1, HDAC 3 (Homo sapiens, UniProt O15379); experiment: Enzyme activity detection of histone deacetylase 3 (fluorogenic substrate deacetylation); format: biochemical; conditions: 0.16 ng/μL HDAC 3, 10 μM substrate; IC50 class
T1 construct: purchased BPS Bioscience #50003
Source text: as §1
B: Enzyme Activity Detection of Histone Deacetylase 3 (#50003, BPS Bioscience)
as §2, with “3,” for “1,”, “3.” for “1.”, “0.16” for “0.28”
as §3

T1 sequence (O15379 whole entry): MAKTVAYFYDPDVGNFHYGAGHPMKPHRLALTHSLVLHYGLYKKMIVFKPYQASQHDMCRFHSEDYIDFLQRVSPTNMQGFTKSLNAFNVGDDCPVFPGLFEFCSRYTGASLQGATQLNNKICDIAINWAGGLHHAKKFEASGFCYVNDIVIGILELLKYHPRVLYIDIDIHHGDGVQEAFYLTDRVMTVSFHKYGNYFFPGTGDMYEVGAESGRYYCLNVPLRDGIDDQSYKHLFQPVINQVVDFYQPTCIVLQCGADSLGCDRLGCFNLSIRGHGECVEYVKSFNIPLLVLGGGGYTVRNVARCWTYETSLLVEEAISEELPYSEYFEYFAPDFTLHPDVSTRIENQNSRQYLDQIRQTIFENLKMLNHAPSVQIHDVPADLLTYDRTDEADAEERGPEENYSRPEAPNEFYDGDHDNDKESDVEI
T1 sequence (Q9Y618 395-489 partner limits assumed): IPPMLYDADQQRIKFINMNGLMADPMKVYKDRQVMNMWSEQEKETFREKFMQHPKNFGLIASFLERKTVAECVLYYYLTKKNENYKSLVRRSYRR
Chain of HDAC 1 (Q13547 whole entry, species assumed): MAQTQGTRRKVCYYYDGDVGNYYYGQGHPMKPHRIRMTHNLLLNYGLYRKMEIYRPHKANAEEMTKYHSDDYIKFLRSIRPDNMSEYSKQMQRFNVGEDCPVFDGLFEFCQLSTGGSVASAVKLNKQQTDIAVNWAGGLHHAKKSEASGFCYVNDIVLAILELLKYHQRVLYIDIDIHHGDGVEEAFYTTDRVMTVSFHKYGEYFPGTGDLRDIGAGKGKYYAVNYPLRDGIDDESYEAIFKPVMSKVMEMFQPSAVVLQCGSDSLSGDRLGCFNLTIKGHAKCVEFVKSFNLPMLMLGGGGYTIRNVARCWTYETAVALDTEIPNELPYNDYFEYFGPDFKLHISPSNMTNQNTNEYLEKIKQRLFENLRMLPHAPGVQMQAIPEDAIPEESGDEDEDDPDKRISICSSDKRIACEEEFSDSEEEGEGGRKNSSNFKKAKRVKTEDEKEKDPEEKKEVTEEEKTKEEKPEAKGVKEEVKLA

CN1CCN(c2ccc(-c3ccc(S(=O)(=O)N4CC=C(C(=O)NO)CC4)cc3)cc2)CC1 [Compound 29, N-hydroxyl-1-((4′-(4-methylpiperazinyl)-[1,1′-biphenyl]-4-yl)sulfonyl)-1,2,3,6-tetrahydropyridine-4-formamide]
> 7.00: pEC50 (HepG2 cells) | pIC50 (HDAC 1) | pIC50 (HDAC 3)
